Results: patent publication EP4707263A1, “FLUORINATING AGENT AND FLUORINATION METHOD” (Daikin Industries, Ltd., priority 2024, dated 2025)

Test: pKa (acid dissociation constant) determined by neutralization titration
Type: physicochemical
Settings: acid dissociation constant at 25°C in water

CO [Base B-2, KOMe]
pKa: 16
